Measured values as given in patent US20230322723A1, “COMPOUNDS FOR SUPPRESSING EGFR MUTANT CANCER AND PHARMACEUTICAL USE THEREOF” (J2H BIOTECH INC., priority 2020, published 2023).

How the values were obtained:
EGFR^del19+T790M+C797S = assay: EGFR protein degradation test (Western blot) in Ba/F3 cells expressing mutant EGFR del19+T790M+C797S (DTC); format: cell-based; settings: compounds at 0.1 μM and 1 μM, 24 hours, Western blot with EGFR antibody
Method: (§1) The ability of the compounds of the present invention to degrade the mutant EGFR protein was confirmed in Ba/F3 cells expressing normal EGFR, mutant EGFR^del19+T790M+C797S or mutant EGFR^L858R+T790M+C797S. A Western blot test using the EGFR antibody was performed.
(§2) Specifically, Ba/F3 cells expressing EGFR were cultured in RPMI 1640 (Gibco, NY, USA) containing 10% fetal bovine serum (FBS, Gibco, NY, USA). Cells expressing normal EGFR, mutant EGFR^del19+T790M+C797S or mutant EGFR^L858R+T790M+C797S were treated with the compounds of the present invention at concentrations of 0.1 μM and 1 μM, respectively, for 24 hours. After that, it was washed twice with phosphate buffered saline (PBS) and SDS-PAGE was performed with 30 μg of cell lysate. After the protein separated on the gel was transferred to a nitrocellulose membrane, the expression level of the EGFR protein was confirmed using an EGFR antibody (Santa Cruz biotechnology, Santacruz, CA, USA). EGFR bands separated by Western blotting were quantitatively analyzed with Fluo-S MultiImager (Bio-Rad, Hercules, CA, USA).

EGFR^L858R+T790M+C797S = target: T1, EGFR^L858R+T790M+C797S (Homo sapiens, UniProt P00533, C797S/L858R/T790M); assay: EGFR protein degradation test (Western blot) in Ba/F3 cells expressing mutant EGFR L858R+T790M+C797S (LTC); format: cell-based; settings: compounds at 0.1 μM and 1 μM, 24 hours, Western blot with EGFR antibody
T1 construct: expressed in transfected cells; host or cells: Ba/F3
Method: as §1, §2

T1 sequence (P00533 25-1210 T790M/C797S/L858R): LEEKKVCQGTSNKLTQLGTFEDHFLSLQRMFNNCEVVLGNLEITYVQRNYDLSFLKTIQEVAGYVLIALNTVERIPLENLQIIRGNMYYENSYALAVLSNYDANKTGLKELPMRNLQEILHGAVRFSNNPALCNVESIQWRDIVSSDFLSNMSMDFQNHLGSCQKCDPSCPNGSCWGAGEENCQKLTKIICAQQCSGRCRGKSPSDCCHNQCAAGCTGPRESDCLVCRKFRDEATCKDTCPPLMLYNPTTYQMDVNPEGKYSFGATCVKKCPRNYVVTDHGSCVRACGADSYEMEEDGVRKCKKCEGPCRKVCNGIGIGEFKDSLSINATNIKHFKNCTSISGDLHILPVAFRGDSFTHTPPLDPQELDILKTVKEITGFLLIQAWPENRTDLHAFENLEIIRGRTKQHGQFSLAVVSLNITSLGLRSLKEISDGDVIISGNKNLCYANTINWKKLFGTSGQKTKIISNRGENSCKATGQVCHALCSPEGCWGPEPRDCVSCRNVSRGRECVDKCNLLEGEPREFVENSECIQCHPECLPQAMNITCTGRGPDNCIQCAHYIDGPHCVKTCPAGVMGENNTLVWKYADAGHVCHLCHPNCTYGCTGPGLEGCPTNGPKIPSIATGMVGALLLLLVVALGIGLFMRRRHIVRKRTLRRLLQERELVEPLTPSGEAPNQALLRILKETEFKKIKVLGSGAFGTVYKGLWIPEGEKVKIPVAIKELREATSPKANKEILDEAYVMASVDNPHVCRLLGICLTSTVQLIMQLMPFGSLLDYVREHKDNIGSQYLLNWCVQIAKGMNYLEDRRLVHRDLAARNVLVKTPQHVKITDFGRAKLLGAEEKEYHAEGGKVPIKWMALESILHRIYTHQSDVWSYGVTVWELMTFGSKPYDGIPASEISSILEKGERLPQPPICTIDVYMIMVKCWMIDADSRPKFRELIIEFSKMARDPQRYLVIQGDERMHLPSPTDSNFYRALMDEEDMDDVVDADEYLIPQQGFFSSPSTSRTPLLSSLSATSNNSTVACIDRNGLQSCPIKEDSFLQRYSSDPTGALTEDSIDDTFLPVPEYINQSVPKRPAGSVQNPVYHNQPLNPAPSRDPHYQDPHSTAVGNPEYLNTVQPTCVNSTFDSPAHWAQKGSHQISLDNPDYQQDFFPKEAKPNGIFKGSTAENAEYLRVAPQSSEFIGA

Row | Structure (SMILES) | DTC (EGFR^del19+T790M+C797S) protein degradation (EGFR^del19+T790M+C797S) | LTC (EGFR^L858R+T790M+C797S) protein degradation (EGFR^L858R+T790M+C797S)
1 | COc1cc(N2CCC3(CCN(CC(=O)N[C@H](C(=O)N4C[C@H](O)CC4C(=O)NCc4ccc(-c5scnc5C)cc4)C(C)(C)C)CC3)CC2)ccc1Nc1ncc(Cl)c(Nc2ccccc2N(C)S(C)(=O)=O)n1 (stereo in doubt) [Compound 31, (2R,4R)-1-((S)-2-(2-(9-(4-((5-chloro-4-((2-(N-methylmethylsulfonamido)phenyl)amino)pyrimidin-2-yl)amino)-3-methoxyphenyl)-3,9-diazaspiro[5,5]undecan-3-yl)acetamido)-3,3-dimethylbutanoyl)-4-hydroxy-N-(4-(4-methylthiazol-5-yl)benzyl)pyrrolidin-2-carboxamide] | ++ (Protein degradation > 80%) | + (Protein degradation 20~80%)
2 | COc1cc(N2CCN(CC3CCN(CC(=O)N[C@H](C(=O)N4C[C@H](O)CC4C(=O)NCc4ccc(-c5scnc5C)cc4)C4CC4)CC3)CC2)ccc1Nc1ncc(Cl)c(Nc2ccccc2N(C)S(C)(=O)=O)n1 (stereo in doubt) [Compound 55, (2R,4R)-1-((S)-2-(2-(4-((4-(4-((5-chloro-4-((2-(N-methylmethylsulfonamido)phenyl)amino)pyrimidin-2-yl)amino)-3-methoxyphenyl)piperazin-1-yl)methyl)piperidin-1-yl)acetamido)-2-cyclopropylacetyl)-4-hydroxy-N-(4-(4-methylthiazol-5-yl)benzyl)pyrrolidin-2-carboxamide] | − (Protein degradation < 20%) | − (Protein degradation < 20%)
3 | COc1cc(N2CCN(CC3CCN(CC(=O)N[C@H](C(=O)N4C[C@H](O)CC4C(=O)NCc4ccc(-c5scnc5C)cc4)C(C)C)CC3)CC2)ccc1Nc1ncc(Cl)c(Nc2ccccc2N(C)S(C)(=O)=O)n1 (stereo in doubt) [Compound 56, (2R,4R)-1-((2-(4-((4-(4-((5-chloro-4-((2-(N-methylmethylsulfonamido)phenyl)amino)pyrimidin-2-yl)amino)-3-methoxyphenyl)piperazin-1-yl)methyl)piperidin-1-yl)acetyl)-L-valyl)-4-hydroxy-N-(4-(4-methylthiazol-5-yl)benzyl)pyrrolidin-2-carboxamide] | + (Protein degradation 20~80%) | − (Protein degradation < 20%)
4 | COc1cc(N2CCN(CCCCC(=O)Nc3cccc4c3C(=O)N(C3CCC(=O)NC3=O)C4=O)CC2)ccc1Nc1ncc(Cl)c(Nc2ccccc2N(C)S(C)(=O)=O)n1 (centres unmarked) [Compound 1, 5-(4-(4-((5-chloro-4-((2-(N-methylmethylsulfonamido)phenyl)amino)pyrimidin-2-yl)amino)-3-methoxyphenyl)piperazin-1-yl)-N-(2-(2,6-dioxopiperidin-3-yl)-1,3-dioxoisoindolin-4-yl)pentanamide] | − (Protein degradation < 20%) | − (Protein degradation < 20%)
5 | COc1cc(N2CCC(N3CCN(CCCCC(=O)Nc4cccc5c4C(=O)N(C4CCC(=O)NC4=O)C5=O)CC3)CC2)ccc1Nc1ncc(Cl)c(Nc2ccccc2N(C)S(C)(=O)=O)n1 (centres unmarked) [Compound 2, 5-(4-(1-(4-((5-chloro-4-((2-(N-methylmethylsulfonamido)phenyl)amino)pyrimidin-2-yl)amino)-3-methoxyphenyl)piperidin-4-yl)piperazin-1-yl)-N-(2-(2,6-dioxopiperidin-3-yl)-1,3-dioxoisoindolin-4-yl)pentanamide] | + (Protein degradation 20~80%) | − (Protein degradation < 20%)
6 | COc1cc(N2CCC(N(C)CCCCOc3cccc4c3C(=O)N(C3CCC(=O)NC3=O)C4=O)CC2)ccc1Nc1ncc(Cl)c(Nc2ccccc2N(C)S(C)(=O)=O)n1 (centres unmarked) [Compound 3, N-(2-((5-chloro-2-((4-(4-((4-((2-(2,6-dioxopiperidin-3-yl)-1,3-dioxoisoindolin-4-yl)oxy)butyl)(methyl)amino)piperidin-1-yl)-2-methoxyphenyl)amino)pyrimidin-4-yl)amino)phenyl)-N-methylmethanesulfonamide] | − (Protein degradation < 20%) | − (Protein degradation < 20%)
7 | COc1cc(N2CCN(CCCCCCCCCCC(=O)Nc3cccc4c3C(=O)N(C3CCC(=O)NC3=O)C4=O)CC2)ccc1Nc1ncc(Cl)c(Nc2ccccc2N(C)S(C)(=O)=O)n1 (centres unmarked) [Compound 4, 11-(4-(4-((5-chloro-4-((2-(N-methylmethylsulfonamido)phenyl)amino)pyrimidin-2-yl)amino)-3-methoxyphenyl)piperazin-1-yl)-N-(2-(2,6-dioxopiperidin-3-yl)-1,3-dioxoisoindolin-4-yl)undecanamide] | − (Protein degradation < 20%) | − (Protein degradation < 20%)
8 | COc1cc(N2CCC(N3CCN(CCCCCCCCCCC(=O)Nc4cccc5c4C(=O)N(C4CCC(=O)NC4=O)C5=O)CC3)CC2)ccc1Nc1ncc(Cl)c(Nc2ccccc2N(C)S(C)(=O)=O)n1 (centres unmarked) [Compound 5, 11-(4-(1-(4-((5-chloro-4-((2-(N-methylmethylsulfonamido)phenyl)amino)pyrimidin-2-yl)amino)-3-methoxyphenyl)piperidin-4-yl)piperazin-1-yl)-N-(2-(2,6-dioxopiperidin-3-yl)-1,3-dioxoisoindolin-4-yl)undecanamide] | − (Protein degradation < 20%) | − (Protein degradation < 20%)
9 | COc1cc(N2CCN(CCCCC(=O)N[C@H](C(=O)N3C[C@H](O)C[C@@H]3C(=O)NCc3ccc(-c4scnc4C)cc3)C(C)(C)C)CC2)ccc1Nc1ncc(Cl)c(Nc2ccccc2N(C)S(C)(=O)=O)n1 [Compound 6, (2R,4R)-1-((S)-2-(5-(4-(4-((5-chloro-4-((2-(N-methylmethylsulfonamido)phenyl)amino)pyrimidin-2-yl)amino)-3-methoxyphenyl)piperazin-1-yl)pentanamido)3,3-dimethylbutanoyl)4-hydroxy-N-(4-(4-methylthiazol-5-yl)benzyl)pyrrolidin-2-carboxamide] | + (Protein degradation 20~80%) | − (Protein degradation < 20%)
10 | COc1cc(N2CCC(N3CCN(CCCCC(=O)N[C@H](C(=O)N4C[C@H](O)C[C@@H]4C(=O)NCc4ccc(-c5scnc5C)cc4)C(C)(C)C)CC3)CC2)ccc1Nc1ncc(Cl)c(Nc2ccccc2N(C)S(C)(=O)=O)n1 [Compound 7, (2R,4R)-1-((S)-2-(5-(4-(1-(4-((5-chloro-4-((2-(N-methylmethylsulfonamido)phenyl)amino)pyrimidin-2-yl)amino)-3-methoxyphenyl)piperidin-4-yl)piperazin-1-yl)pentanamido)-3,3-dimethylbutanoyl)-4-hydroxy-N-(4-(4-methylthiazol-5-yl)benzyl)pyrrolidin-2-carboxamide] | + (Protein degradation 20~80%) | − (Protein degradation < 20%)
11 | COc1cc(N2CCN(CCOCCOCC(=O)Nc3cccc4c3C(=O)N(C3CCC(=O)NC3=O)C4=O)CC2)ccc1Nc1ncc(Cl)c(Nc2ccccc2N(C)S(C)(=O)=O)n1 (centres unmarked) [Compound 8, 2-(2-(2-(4-(4-((5-chloro-4-((2-(N-methylmethylsulfonamido)phenyl)amino)pyrimidin-2-yl)amino)-3-methoxyphenyl)piperazin-1-yl)ethoxy)ethoxy)-N-(2-(2,6-dioxopiperidin-3-yl)-1,3-dioxoisoindolin-4-yl)acetamide] | − (Protein degradation < 20%) | − (Protein degradation < 20%)
12 | COc1cc(N2CCC(N3CCN(CCOCCOCC(=O)Nc4cccc5c4C(=O)N(C4CCC(=O)NC4=O)C5=O)CC3)CC2)ccc1Nc1ncc(Cl)c(Nc2ccccc2N(C)S(C)(=O)=O)n1 (centres unmarked) [Compound 9, 2-(2-(2-(4-(1-(4-((5-chloro-4-((2-(N-methylmethylsulfonamido)phenyl)amino)pyrimidin-2-yl)amino)-3-methoxyphenyl)piperidin-4-yl)piperazin-1-yl)ethoxy)ethoxy)-N-(2-(2,6-dioxopiperidin-3-yl)-1,3-dioxoisoindolin-4-yl)acetamide] | − (Protein degradation < 20%) | − (Protein degradation < 20%)
13 | COc1cc(N2CCN(CCOCCOCC(=O)N[C@H](C(=O)N3C[C@H](O)C[C@@H]3C(=O)NCc3ccc(-c4scnc4C)cc3)C(C)(C)C)CC2)ccc1Nc1ncc(Cl)c(Nc2ccccc2N(C)S(C)(=O)=O)n1 [Compound 10, (2R,4R)-1-((S)-2-(2-(2-(2-(4-(4-((5-chloro-4-((2-(N-methylmethylsulfonamido)phenyl)amino)pyrimidin-2-yl)amino)-3-methoxyphenyl)piperazin-1-yl)ethoxy)ethoxy)acetamido)-3,3-dimethylbutanoyl)-4-hydroxy-N-(4-(4-methylthiazol-5-yl)benzyl)pyrrolidin-2-carboxamide] | − (Protein degradation < 20%) | − (Protein degradation < 20%)
